Laboratory results as given in publication PMC10222858 (Marine Drugs, 2023).
Where a SMILES comes first, the peptide text is derived from it.

What was measured:
[1] = target: rα3β4 nAChRs (Rattus norvegicus, UniProt P04757+P12392); experiment: cell-based; assay type: cell-based
[2] = target: rα6/α3β4 nAChRs (Rattus norvegicus, UniProt P04757+P12392+P43143); experiment: cell-based; assay type: cell-based
rα6/α3β4 nAChRs, sequence (P04757 whole entry, looked up): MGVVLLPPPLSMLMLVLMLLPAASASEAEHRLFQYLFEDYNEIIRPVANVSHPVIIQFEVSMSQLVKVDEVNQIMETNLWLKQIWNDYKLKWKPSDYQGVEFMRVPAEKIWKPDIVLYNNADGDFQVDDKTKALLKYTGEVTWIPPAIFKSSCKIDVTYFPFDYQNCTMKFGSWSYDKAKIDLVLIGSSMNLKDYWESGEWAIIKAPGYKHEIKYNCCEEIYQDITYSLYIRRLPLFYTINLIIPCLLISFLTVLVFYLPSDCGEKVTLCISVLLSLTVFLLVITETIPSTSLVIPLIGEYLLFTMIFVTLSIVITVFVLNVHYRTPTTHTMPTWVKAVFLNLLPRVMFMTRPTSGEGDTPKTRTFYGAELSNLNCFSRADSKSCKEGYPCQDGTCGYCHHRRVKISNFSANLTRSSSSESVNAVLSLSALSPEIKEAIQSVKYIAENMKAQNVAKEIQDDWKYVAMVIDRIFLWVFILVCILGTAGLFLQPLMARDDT
rα6/α3β4 nAChRs, sequence (P12392 whole entry, looked up): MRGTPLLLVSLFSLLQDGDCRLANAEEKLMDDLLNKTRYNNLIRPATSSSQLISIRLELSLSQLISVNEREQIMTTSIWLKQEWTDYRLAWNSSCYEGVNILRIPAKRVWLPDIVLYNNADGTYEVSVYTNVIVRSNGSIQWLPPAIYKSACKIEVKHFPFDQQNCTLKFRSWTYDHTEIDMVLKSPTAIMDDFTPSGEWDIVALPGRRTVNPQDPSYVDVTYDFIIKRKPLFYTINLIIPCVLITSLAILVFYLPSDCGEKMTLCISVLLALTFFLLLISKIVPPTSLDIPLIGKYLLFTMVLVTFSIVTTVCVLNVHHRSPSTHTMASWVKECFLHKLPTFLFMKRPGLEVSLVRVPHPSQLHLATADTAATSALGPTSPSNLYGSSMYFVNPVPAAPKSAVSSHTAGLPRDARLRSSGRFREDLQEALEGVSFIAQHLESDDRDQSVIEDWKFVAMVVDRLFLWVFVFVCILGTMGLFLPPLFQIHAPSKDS
rα6/α3β4 nAChRs, sequence (P43143 whole entry, looked up): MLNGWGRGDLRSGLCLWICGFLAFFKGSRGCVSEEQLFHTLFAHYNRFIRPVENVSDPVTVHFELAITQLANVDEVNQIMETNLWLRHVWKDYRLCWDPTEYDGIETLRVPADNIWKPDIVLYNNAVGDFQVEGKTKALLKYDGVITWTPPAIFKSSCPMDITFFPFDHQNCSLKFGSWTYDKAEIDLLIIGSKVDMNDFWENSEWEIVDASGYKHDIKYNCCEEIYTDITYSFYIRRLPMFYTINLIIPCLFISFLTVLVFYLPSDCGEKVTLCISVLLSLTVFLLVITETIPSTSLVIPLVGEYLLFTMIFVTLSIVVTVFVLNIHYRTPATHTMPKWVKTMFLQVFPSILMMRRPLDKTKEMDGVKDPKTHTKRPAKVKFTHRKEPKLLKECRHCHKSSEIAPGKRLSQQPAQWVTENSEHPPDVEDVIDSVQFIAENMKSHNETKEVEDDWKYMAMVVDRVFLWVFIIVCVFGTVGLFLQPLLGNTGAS

rα3β4 nAChRs, sequence (P04757 26-499 limits assumed): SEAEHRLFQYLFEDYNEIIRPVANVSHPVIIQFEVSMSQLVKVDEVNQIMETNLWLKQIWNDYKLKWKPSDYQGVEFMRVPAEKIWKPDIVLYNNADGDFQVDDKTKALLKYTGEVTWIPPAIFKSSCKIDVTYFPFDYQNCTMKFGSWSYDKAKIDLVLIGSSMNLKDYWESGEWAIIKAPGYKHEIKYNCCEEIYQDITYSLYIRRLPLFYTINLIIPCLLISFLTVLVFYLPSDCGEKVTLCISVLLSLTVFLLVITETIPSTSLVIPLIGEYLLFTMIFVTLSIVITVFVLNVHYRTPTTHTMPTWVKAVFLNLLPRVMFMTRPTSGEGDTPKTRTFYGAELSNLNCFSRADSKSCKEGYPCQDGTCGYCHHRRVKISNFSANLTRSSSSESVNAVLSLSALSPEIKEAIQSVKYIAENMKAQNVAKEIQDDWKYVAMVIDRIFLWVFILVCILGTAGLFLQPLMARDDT
rα3β4 nAChRs, sequence (P12392 21-495 limits assumed): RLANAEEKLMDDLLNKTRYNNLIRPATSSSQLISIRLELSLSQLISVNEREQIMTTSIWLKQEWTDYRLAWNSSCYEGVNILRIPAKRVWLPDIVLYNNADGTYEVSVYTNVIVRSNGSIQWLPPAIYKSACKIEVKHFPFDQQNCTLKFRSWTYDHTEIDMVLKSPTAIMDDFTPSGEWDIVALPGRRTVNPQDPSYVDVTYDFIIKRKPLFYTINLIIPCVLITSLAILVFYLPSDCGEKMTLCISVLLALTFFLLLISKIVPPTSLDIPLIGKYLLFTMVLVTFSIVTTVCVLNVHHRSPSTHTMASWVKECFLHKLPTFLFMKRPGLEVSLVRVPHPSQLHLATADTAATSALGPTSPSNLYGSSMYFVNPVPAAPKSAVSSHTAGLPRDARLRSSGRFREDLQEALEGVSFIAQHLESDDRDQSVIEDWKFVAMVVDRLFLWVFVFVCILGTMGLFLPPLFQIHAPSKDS

SMILES	IC50 [1]	blocking percentage of rα3β4 nAChRs [1]	IC50 [2]	inhibition of rα6/α3β4 nAChRs in words [2]
CC[C@H](C)[C@@H]1NC(=O)[C@@H]2CCCN2C(=O)[C@H](CO)NC(=O)[C@H](CCSC)NC(=O)[C@H](C)NC(=O)[C@H](CO)NC(=O)[C@H](C)NC(=O)[C@@H]2CSSC[C@H](NC(=O)CN)C(=O)N[C@@H](CSSC[C@@H](C(N)=O)NC1=O)C(=O)N[C@@H](CO)C(=O)N[C@@H](Cc1c[nH]cn1)C(=O)N1CCC[C@H]1C(=O)N[C@@H](C(C)C)C(=O)N2 [[+9A]TxID] (HELM PEPTIDE1{G.C.C.S.H.P.V.C.A.S.A.M.S.P.I.C.[am]}$PEPTIDE1,PEPTIDE1,2:R3-8:R3|PEPTIDE1,PEPTIDE1,3:R3-16:R3$$$V2.0)	> 10000 nM	less than fifty percent	> 10000 nM	no obvious inhibition
CC[C@H](C)[C@@H]1NC(=O)[C@@H]2CCCN2C(=O)[C@H](C)NC(=O)[C@H](CO)NC(=O)[C@H](CCSC)NC(=O)[C@H](C)NC(=O)[C@H](CO)NC(=O)[C@@H]2CSSC[C@H](NC(=O)CN)C(=O)N[C@@H](CSSC[C@@H](C(N)=O)NC1=O)C(=O)N[C@@H](CO)C(=O)N[C@@H](Cc1c[nH]cn1)C(=O)N1CCC[C@H]1C(=O)N[C@@H](C(C)C)C(=O)N2 [[+13A]TxID] (HELM PEPTIDE1{G.C.C.S.H.P.V.C.S.A.M.S.A.P.I.C.[am]}$PEPTIDE1,PEPTIDE1,2:R3-8:R3|PEPTIDE1,PEPTIDE1,3:R3-16:R3$$$V2.0)	9.9 nM		64 nM	
CC[C@H](C)[C@@H]1NC(=O)[C@H](C)NC(=O)[C@@H]2CCCN2C(=O)[C@H](CO)NC(=O)[C@H](CCSC)NC(=O)[C@H](C)NC(=O)[C@H](CO)NC(=O)[C@@H]2CSSC[C@H](NC(=O)CN)C(=O)N[C@@H](CSSC[C@@H](C(N)=O)NC1=O)C(=O)N[C@@H](CO)C(=O)N[C@@H](Cc1c[nH]cn1)C(=O)N1CCC[C@H]1C(=O)N[C@@H](C(C)C)C(=O)N2 [[+14A]TxID] (HELM PEPTIDE1{G.C.C.S.H.P.V.C.S.A.M.S.P.A.I.C.[am]}$PEPTIDE1,PEPTIDE1,2:R3-8:R3|PEPTIDE1,PEPTIDE1,3:R3-16:R3$$$V2.0)	37 nM		368 nM	
CC[C@H](C)[C@@H]1NC(=O)[C@@H]2CCCN2C(=O)[C@H](CO)NC(=O)[C@H](C)NC(=O)[C@H](CCSC)NC(=O)[C@H](C)NC(=O)[C@H](CO)NC(=O)[C@@H]2CSSC[C@H](NC(=O)CN)C(=O)N[C@@H](CSSC[C@@H](C(N)=O)NC1=O)C(=O)N[C@@H](CO)C(=O)N[C@@H](Cc1c[nH]cn1)C(=O)N1CCC[C@H]1C(=O)N[C@@H](C(C)C)C(=O)N2 [[+12A]TxID] (HELM PEPTIDE1{G.C.C.S.H.P.V.C.S.A.M.A.S.P.I.C.[am]}$PEPTIDE1,PEPTIDE1,2:R3-8:R3|PEPTIDE1,PEPTIDE1,3:R3-16:R3$$$V2.0)	49 nM		34 nM	
CC[C@H](C)[C@@H]1NC(=O)[C@@H]2CCCN2C(=O)[C@H](CO)NC(=O)[C@H](CCSC)NC(=O)[C@H](C)NC(=O)[C@H](CO)NC(=O)[C@@H]2CSSC[C@H](NC(=O)CN)C(=O)N[C@@H](CSSC[C@@H](C(N)=O)NC(=O)[C@H](C)NC1=O)C(=O)N[C@@H](CO)C(=O)N[C@@H](Cc1c[nH]cn1)C(=O)N1CCC[C@H]1C(=O)N[C@@H](C(C)C)C(=O)N2 [[+15A]TxID] (HELM PEPTIDE1{G.C.C.S.H.P.V.C.S.A.M.S.P.I.A.C.[am]}$PEPTIDE1,PEPTIDE1,2:R3-8:R3|PEPTIDE1,PEPTIDE1,3:R3-16:R3$$$V2.0)	3 nM		37 nM	
CC[C@H](C)[C@@H]1NC(=O)[C@@H]2CCCN2C(=O)[C@H](CO)NC(=O)[C@H](CCSC)NC(=O)[C@H](C)NC(=O)[C@H](C)NC(=O)[C@H](CO)NC(=O)[C@@H]2CSSC[C@H](NC(=O)CN)C(=O)N[C@@H](CSSC[C@@H](C(N)=O)NC1=O)C(=O)N[C@@H](CO)C(=O)N[C@@H](Cc1c[nH]cn1)C(=O)N1CCC[C@H]1C(=O)N[C@@H](C(C)C)C(=O)N2 [[+10A]TxID] (HELM PEPTIDE1{G.C.C.S.H.P.V.C.S.A.A.M.S.P.I.C.[am]}$PEPTIDE1,PEPTIDE1,2:R3-8:R3|PEPTIDE1,PEPTIDE1,3:R3-16:R3$$$V2.0)	> 10000 nM		1130 nM	
